The text below walks through data of US12415794B2 (Edgewise Therapeutics, Inc., priority 2018, dated 2025).

Where only a bound is given, the exact number is not on record here.

In one assay the target is T1, cardiac myofibrils (myosin ATPase).
T1 construct: frozen myofibril pellets obtained from cardiac tissue; from tissue
T1 sequence (P12883 whole entry): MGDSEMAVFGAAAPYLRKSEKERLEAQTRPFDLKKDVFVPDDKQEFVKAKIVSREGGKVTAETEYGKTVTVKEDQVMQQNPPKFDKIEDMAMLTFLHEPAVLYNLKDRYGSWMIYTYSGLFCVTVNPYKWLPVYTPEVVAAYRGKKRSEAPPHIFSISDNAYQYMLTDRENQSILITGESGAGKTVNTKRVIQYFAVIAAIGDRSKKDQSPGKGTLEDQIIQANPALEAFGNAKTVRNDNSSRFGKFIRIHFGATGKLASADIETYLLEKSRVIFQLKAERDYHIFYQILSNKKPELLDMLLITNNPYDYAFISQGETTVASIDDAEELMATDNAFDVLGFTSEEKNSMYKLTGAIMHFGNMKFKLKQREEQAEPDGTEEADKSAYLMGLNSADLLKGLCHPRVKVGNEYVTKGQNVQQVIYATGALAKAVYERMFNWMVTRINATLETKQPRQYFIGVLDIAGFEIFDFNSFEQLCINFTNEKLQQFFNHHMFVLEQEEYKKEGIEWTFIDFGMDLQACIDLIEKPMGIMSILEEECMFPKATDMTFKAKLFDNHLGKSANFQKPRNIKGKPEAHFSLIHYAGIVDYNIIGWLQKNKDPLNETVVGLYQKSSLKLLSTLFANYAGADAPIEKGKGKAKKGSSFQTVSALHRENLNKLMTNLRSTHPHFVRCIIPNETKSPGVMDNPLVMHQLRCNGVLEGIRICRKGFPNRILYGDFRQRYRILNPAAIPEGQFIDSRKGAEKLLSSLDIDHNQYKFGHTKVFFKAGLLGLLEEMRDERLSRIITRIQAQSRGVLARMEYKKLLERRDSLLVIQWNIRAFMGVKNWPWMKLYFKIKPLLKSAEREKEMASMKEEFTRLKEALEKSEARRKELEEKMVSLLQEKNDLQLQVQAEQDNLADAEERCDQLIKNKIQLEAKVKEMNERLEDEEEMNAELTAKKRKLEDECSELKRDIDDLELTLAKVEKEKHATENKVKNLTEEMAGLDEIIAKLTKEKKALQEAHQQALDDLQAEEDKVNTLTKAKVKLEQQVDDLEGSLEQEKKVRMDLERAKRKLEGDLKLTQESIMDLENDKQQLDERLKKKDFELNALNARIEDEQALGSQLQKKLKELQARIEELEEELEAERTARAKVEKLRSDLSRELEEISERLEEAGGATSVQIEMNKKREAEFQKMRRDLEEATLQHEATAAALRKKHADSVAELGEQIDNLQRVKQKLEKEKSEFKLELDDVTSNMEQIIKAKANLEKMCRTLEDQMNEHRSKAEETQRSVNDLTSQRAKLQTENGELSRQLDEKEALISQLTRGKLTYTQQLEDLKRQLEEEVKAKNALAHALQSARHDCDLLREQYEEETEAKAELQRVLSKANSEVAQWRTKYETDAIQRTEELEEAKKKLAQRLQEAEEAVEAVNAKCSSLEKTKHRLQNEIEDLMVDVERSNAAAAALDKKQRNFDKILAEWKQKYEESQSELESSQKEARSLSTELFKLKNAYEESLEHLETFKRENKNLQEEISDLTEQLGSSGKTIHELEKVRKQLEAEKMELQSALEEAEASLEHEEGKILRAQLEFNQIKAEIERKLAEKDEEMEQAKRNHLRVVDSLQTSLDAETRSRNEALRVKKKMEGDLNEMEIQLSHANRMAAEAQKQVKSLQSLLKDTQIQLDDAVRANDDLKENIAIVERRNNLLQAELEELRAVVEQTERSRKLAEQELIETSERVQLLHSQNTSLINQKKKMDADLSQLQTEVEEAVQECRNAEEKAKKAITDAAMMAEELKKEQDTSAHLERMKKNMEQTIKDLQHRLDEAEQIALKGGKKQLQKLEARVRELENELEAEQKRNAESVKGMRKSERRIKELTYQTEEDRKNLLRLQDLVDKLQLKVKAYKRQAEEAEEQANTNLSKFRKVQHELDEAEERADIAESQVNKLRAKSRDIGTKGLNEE
T1 sequence (P08590 whole entry partner): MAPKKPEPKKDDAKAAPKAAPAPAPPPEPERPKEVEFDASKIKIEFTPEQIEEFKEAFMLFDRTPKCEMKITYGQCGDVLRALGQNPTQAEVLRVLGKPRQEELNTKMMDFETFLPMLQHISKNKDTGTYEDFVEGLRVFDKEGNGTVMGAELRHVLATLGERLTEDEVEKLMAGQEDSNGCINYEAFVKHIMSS
T1 sequence (P10916 whole entry partner): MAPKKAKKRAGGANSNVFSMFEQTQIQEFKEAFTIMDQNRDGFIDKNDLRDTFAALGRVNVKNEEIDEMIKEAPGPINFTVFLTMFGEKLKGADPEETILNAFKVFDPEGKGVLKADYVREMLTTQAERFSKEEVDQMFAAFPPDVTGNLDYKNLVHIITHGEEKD
Briefly: Cardiac Myofibril ATPase Assay (counter screen). The settings on record: myofibrils 1.0 mg/mL, KCl omitted, Table 5A. In kind it is biochemical. On the procedure:
(§1) Overview: Myosin ATPase activity is assessed by using a coupled reaction system, in which ADP generated by the myosin ATPase function is coupled to the disappearance of NADH through the pyruvate kinase/lactate dehydrogenase (PK-LDH) system. ATPase activity produces ADP, which is used as a substrate for PK to produce pyruvate and regenerate ATP. The pyruvate is then used as a substrate by LDH to oxidize NADH to NAD+. The rate of the reaction is monitored through the time-dependent disappearance of NADH using absorbance at 340 nm. Inhibition of ATPase activity by the assayed compounds is indicated by a reduced rate of NADH loss, relative to vehicle-treated controls, over the experimental time window. To assess the selectivity of the assayed compounds for skeletal myofibrils, the compounds are counter-screened in cardiac myofibrils.
Example 13: Cardiac Myofibril ATPase Assay
Following example 11, the counter screen was done using frozen myofibril pellets obtained from cardiac tissue. The assay was done in the same manner as above, with the following notable exceptions: the final well concentration of myofibrils was 1.0 mg/mL and KCl was omitted from the recipe.
Compounds of Table 1 to 3 were tested, and results of the assays appear in Tables 5a-5c herein. A=IC50 is less than or equal to 10 μM; B=IC50 is greater than 10 μM and less than 100 μM; C=IC50 is greater than 100 μM; and […].
For orientation: Counterscreens check selectivity or assay interference.
The term IC50 denotes the concentration that gives 50% inhibition. A high value points to weaker potency in that assay. The compound `CC[C@H](C)NC(=O)Cn1nc(-c2ccc(OC(F)F)nc2)ccc1=O` [Compound I-9, (S)-N-(sec-butyl)-2-(3-(6-(difluoromethoxy)pyridin-3-yl)-6-oxopyridazin-1(6H)-yl)acetamide] showed an IC50 of more than 100 µM.

The compound `CCNC(=O)Cn1nc(-c2cnc(OC(F)F)cc2F)ccc1=O` [Compound I-80, 2-(3-(6-(difluoromethoxy)-4-fluoropyridin-3-yl)-6-oxopyridazin-1(6H)-yl)-N-ethylacetamide] yielded an IC50 of more than 100 µM. Turning to `O=C(Cn1nc(-c2ccc(OC(F)(F)F)nc2)ccc1=O)NCc1ccccc1Cl` [Compound I-3, N-(2-chlorobenzyl)-2-(6-oxo-3-(6-(trifluoromethoxy)pyridin-3-yl)pyridazin-1(6H)-yl)acetamide], the IC50 was more than 100 µM.

Take `CCNC(=O)Cn1nc(-c2ccc(N3C[C@@H]4COCC3CO4)nc2)ccc1=O` [Compound I-81, 2-(3-(6-((5R)-3,6-dioxa-8-azabicyclo[3.2.2]nonan-8-yl)pyridin-3-yl)-6-oxopyridazin-1(6H)-yl)-N-ethylacetamide]: the half-maximal inhibitory concentration (IC50) was more than 100 µM.

Staying with this assay, now noted: myofibrils 1.0 mg/mL, KCl omitted, Table 5C.
In the case of `CCOc1ccc(-c2ccc(=O)n(CC(=O)N3CCCc4ccccc43)n2)cc1` [IIIc-8, 2-(2-(3,4-dihydroquinolin-1(2H)-yl)-2-oxoethyl)-6-(4-ethoxyphenyl)pyridazin-3(2H)-one], the IC50 is more than 100 µM. Same read-out and setting: then `O=C(Cn1nc(-c2ccccc2)ccc1=O)N(C1=CCCCC1)C1CC1` [IIIc-59, N-(cyclohex-1-en-1-yl)-N-cyclopropyl-2-(6-oxo-3-phenylpyridazin-1(6H)-yl)acetamide], with more than 100 µM. Still for that read-out and setting: next, `O=C(Cn1nc(-c2ccc(Cl)cc2)ccc1=O)NC1CC1` [IIIc-36, 2-(3-(4-chlorophenyl)-6-oxopyridazin-1(6H)-yl)-N-cyclopropylacetamide]: more than 100 µM.

Turning to `O=C(Cn1nc(-c2ccc(Cl)cc2)ccc1=O)Nc1ccc2cc[nH]c2c1` [IIIc-21, 2-(3-(4-chlorophenyl)-6-oxopyridazin-1(6H)-yl)-N-(1H-indol-6-yl)acetamide], the IC50 is more than 100 µM. The compound `O=C(Cn1nc(-c2ccc(Cl)cc2)ccc1=O)NC1CCCCC1` [IIIc-39, 2-(3-(4-chlorophenyl)-6-oxopyridazin-1(6H)-yl)-N-cyclohexylacetamide] returned an IC50 of more than 100 µM. As to `COc1ccc(OC)c(NC(=O)Cn2nc(-c3ccc(Cl)cc3)ccc2=O)c1` [IIIc-29, 2-(3-(4-chlorophenyl)-6-oxopyridazin-1(6H)-yl)-N-(2,5-dimethoxyphenyl)acetamide], the IC50 is more than 100 µM. Still for that read-out and setting: then `CCNC(=O)Cn1nc(-c2ccc(OCC3(F)COC3)cc2)ccc1=O` [IIIa-27, N-ethyl-2-(3-(4-((3-fluorooxetan-3-yl)methoxy)phenyl)-6-oxopyridazin-yl)acetamide], with more than 100 µM; and `O=C(Cn1nc(-c2ccc(F)cc2)ccc1=O)NCc1cccc(F)c1` [IIIc-43, N-(3-fluorobenzyl)-2-(3-(4-fluorophenyl)-6-oxopyridazin-1(6H)-yl)acetamide], with more than 100 µM. `O=C(Cn1nc(-c2ccc(Cl)cc2)ccc1=O)NCc1ccccc1Cl` [IIIc-14, N-(2-chlorobenzyl)-2-(3-(4-chlorophenyl)-6-oxopyridazin-1(6H)-yl)acetamide] came in with an IC50 of more than 100 µM. The compound `O=C(Cn1nc(-c2ccc(Cl)cc2)ccc1=O)NCc1cccc(Cl)c1` [IIIc-34, N-(3-chlorobenzyl)-2-(3-(4-chlorophenyl)-6-oxopyridazin-1(6H)-yl)acetamide] registered a concentration for half-maximal inhibition (IC50) of more than 100 µM. On the same count and under the same terms, then `COc1ccc(-c2ccc(=O)n(CC(=O)N3CCCC3)n2)cc1` [IIIc-10, 6-(4-methoxyphenyl)-2-(2-oxo-2-(pyrrolidin-1-yl)ethyl)pyridazin-3(2H)-one], with more than 100 µM; and `O=C(Cn1nc(-c2ccccc2)ccc1=O)NCCN1CCc2ccccc21` [IIIc-60, N-(2-(indolin-1-yl)ethyl)-2-(6-oxo-3-phenylpyridazin-1(6H)-yl)acetamide], with more than 100 µM; and `O=C(Cn1nc(-c2ccc(Cl)cc2)ccc1=O)NC1CCCC1` [IIIc-37, 2-(3-(4-chlorophenyl)-6-oxopyridazin-1(6H)-yl)-N-cyclopentylacetamide], with more than 100 µM. `COc1ccc(-c2ccc(=O)n(CC(=O)N3CCC(C(N)=O)CC3)n2)cc1` [IIIc-11, 1-(2-(3-(4-methoxyphenyl)-6-oxopyridazin-1(6H)-yl)acetyl)piperidine-4-carboxamide] showed an IC50 of more than 100 µM. `COc1ccc(Cl)cc1NC(=O)Cn1nc(-c2ccc(Cl)cc2)ccc1=O` [IIIc-26, N-(5-chloro-2-methoxyphenyl)-2-(3-(4-chlorophenyl)-6-oxopyridazin-1(6H)-yl)acetamide] showed an IC50 of more than 100 µM. In turn, `O=C(Cn1nc(-c2ccc(Br)cc2)ccc1=O)NC1CCCCC1` [IIIc-42, 2-(3-(4-bromophenyl)-6-oxopyridazin-1(6H)-yl)-N-cyclohexylacetamide] displayed an IC50 of more than 100 µM. In turn, `COc1ccc(-c2ccc(=O)n(CC(=O)N3CCCC3)n2)cc1OC` [IIIc-9, 6-(3,4-dimethoxyphenyl)-2-(2-oxo-2-(pyrrolidin-1-yl)ethyl)pyridazin-3(2H)-one] returned an IC50 of more than 100 µM. The same measure, in the same setting: next, `CC(C)(CNC(=O)Cn1nc(-c2ccccc2)ccc1=O)c1ccccc1F` [IIIc-61, N-(2-(2-fluorophenyl)-2-methylpropyl)-2-(6-oxo-3-phenylpyridazin-1(6H)-yl)acetamide]: more than 100 µM.

For `CC(C)NC(=O)Cn1nc(-c2ccc(Cl)cc2)ccc1=O` [IIIc-15, 2-(3-(4-chlorophenyl)-6-oxopyridazin-1(6H)-yl)-N-isopropylacetamide], the IC50 was more than 100 µM.

`O=C(Cn1nc(-c2ccc(F)cc2)ccc1=O)N1CCCC1` [IIIc-46, 6-(4-fluorophenyl)-2-(2-oxo-2-(pyrrolidin-1-yl)ethyl)pyridazin-3(2H)-one]: the IC50 was more than 100 µM.

Turning to `COc1ccc(NC(=O)Cn2nc(-c3ccc(Cl)cc3)ccc2=O)c(OC)c1` [IIIc-25, 2-(3-(4-chlorophenyl)-6-oxopyridazin-1(6H)-yl)-N-(2,4-dimethoxyphenyl)acetamide], the IC50 is more than 100 µM.

`O=C(Cn1nc(-c2ccc(Br)cc2)ccc1=O)NC1CCCC1` [IIIc-41, 2-(3-(4-bromophenyl)-6-oxopyridazin-1(6H)-yl)-N-cyclopentylacetamide] registered an IC50 of more than 100 µM.

The compound `Cc1cccnc1NC(=O)Cn1nc(-c2ccc(Cl)cc2)ccc1=O` [IIIc-24, 2-(3-(4-chlorophenyl)-6-oxopyridazin-1(6H)-yl)-N-(3-methylpyridin-2-yl)acetamide] showed an IC50 of more than 100 µM. `COc1ccc(-c2ccc(=O)n(CC(=O)NCC(C)C)n2)c(F)c1` [IIIb-42, 2-(3-(2-fluoro-4-methoxyphenyl)-6-oxopyridazin-1(6H)-yl)-N-isobutylacetamide]: the IC50 is more than 100 µM.

Consider `O=C(Cn1nc(-c2ccc(F)cc2)ccc1=O)Nc1ccccc1F` [IIIc-45, N-(2-fluorophenyl)-2-(3-(4-fluorophenyl)-6-oxopyridazin-1(6H)-yl)acetamide], for which the IC50 is more than 100 µM.

The next assay addresses skeletal myofibrils (myosin ATPase). Nature of the assay: Skeletal Myofibril ATPase Assay. Type of assay: biochemical. The settings on record: Table 4A. On the procedure: FIG. 7 depicts the buffer preparation procedures of Buffer A and Buffer B for the skeletal myofibril ATPase assay described in Example 12. Buffers were stored on ice until use.
Example 12: Skeletal Myofibril ATPase Assay
as §1
Materials: The following stock solutions and reagents were used in the Skeletal Myofibril ATPase Assay:
Stock Solutions of pCa buffer. Combine PIPES, CaCl2, and EGTA solutions with 70 mL of water. Adjust pH to 7.0 and bring final volume to 100 mL.
Skeletal Myofibril ATPase Assay Procedure: BSA, ATP, NADH, PEP, and DTT solutions were thawed at room temperature, then transferred to ice. Pellet-frozen myofibrils were transferred with approximately twice the required volume into a sufficiently large tube and capped. Myofibrils were thawed by rolling in a water bath for approximately 15 min at room temperature and cooled on ice. Buffers A and B were prepared by adjusting volumes as necessary for required number of wells and stored on ice. 0.5 μL of the compounds to be assayed were added into wells. 25 μL of Buffer A was dispensed into the wells, followed by 25 μL of Buffer B. The wells were measured for absorbance at 340 nm, using a kinetic protocol in which the wells are read every 1.5-2 min for 45 min. The slope of the data was approximated by subtracting the minimum absorbance value from the maximum value for each well. This was accomplished either in the SoftMax Pro software or in a spreadsheet program such as Excel. Using GraphPad Prism 8.0, the data was normalized by assigning a value of 100% to the 1% DMSO vehicle wells. Typically, a normalized 0% value was simply assigned to a (Max−Min) value of 0. The normalized data was fit to a Four Parameter Logistic sigmoidal equation, constraining the bottom to be 0 or greater. Compounds of Table 1, 2, and 3 were tested and results of the assay appear in Tables 4a-4c. A=IC50 is less than or equal to 10 μM; B=IC50 is greater than 10 μM and less than 100 μM; C=IC50 is greater than 100 μM.
Consider `CC[C@H](C)NC(=O)Cn1nc(-c2ccc(OC(F)F)nc2)ccc1=O` [Compound I-67, (S)-N-(sec-butyl)-2-(3-(6-(difluoromethoxy)pyridin-3-yl)-6-oxopyridazin-1(6H)-yl)acetamide], for which the IC50 is less than 10 µM. `CCNC(=O)Cn1nc(-c2ccc(N3CC4CC(C3)O4)nc2)ccc1=O` [Compound I-43, 2-(3-(6-(6-oxa-3-azabicyclo[3.1.1]heptan-3-yl)pyridin-3-yl)-6-oxopyridazin-1(6H)-yl)-N-ethylacetamide] returned an IC50 of 10 to 100 µM.

Still in this assay, the particulars now being: Table 4B.
Take `CC(=O)Nc1ccc(-c2ccc(=O)n(CC(=O)NCc3ccccc3Cl)n2)cc1` [II-8, 2-(3-(4-acetamidophenyl)-6-oxopyridazin-1(6H)-yl)-N-(2-chlorobenzyl) acetamide]: the IC50 is less than 10 µM.
